Experimental data from patent publication EP1116715A1, “Tetramic acid derivatives useful in medicines and foodstuffs” (priority 2000, dated 2001).
Converted amounts (≈) assume the structure as drawn.

Columns and labels:
Format in all cases: cell-based
Bakterien = assay: antibacterial activity of synthetic product compared with natural reutericyclin; conditions: relative to natural reutericyclin
Excerpt: (§1) Das Wirkungsspektrum von Reutericyclin wurde mit Hilfe des Naturstoffes untersucht, der aus Lactobacillus reuteri LTH 2584 wie oben beschrieben isoliert wurde. Die antimikrobielle Aktivität wurde gegenüber einer Vielzahl unterschiedlicher Bakterien getestet. Hierfür wurden Verdünnungstest auf Mikrotiterplatten durchgeführt. Kulturen der verschiedenen Bakterien wurden mit Verdünnungen der erfindungsgemässen Verbindung behandelt und die Konzentration bestimmt, die eine Hemmung des Wachstums der Bakterien im Vergleich mit Kontrollen beobachten ließ.
Dies liegt vermutlich daran, daß 6 im Gegensatz zum natürlichen Reutericyclin als Razemat vorliegt.

[1] = test system: Antibiotika-resistente klinische Isolate (Enterococcus Faecalis); assay: microtitre plate dilution test, antibiotic-resistant clinical isolates; conditions: no cross-resistance found
Excerpt: as §1
(§2) Einige humanpathogene Keime, wie beispielsweise Enterococcus Faecalis (DSM20409) erwies sich sogar noch als deutlich empfindlicher gegenüber Reutericyclin. Hier bewirkte eine Konzentration von etwa 0,05 mg/l eine Hemmung des Wachstums der Bakterien. […] Es war also keine Kreuzresistenz festzustellen.

[2] = test system: Staphylocokus aureus (SG511); assay: microtitre plate dilution test, growth inhibition; conditions: compared with Lactobacillus sanfranciscensis
Excerpt: as §1

Escherichia coli = assay: microtitre plate dilution test, growth inhibition; conditions: Gram-negative bacteria; at the tested concentrations
Excerpt: as §1

[3] = test system: Listeria ivanovii (DSM20750); assay: microtitre plate dilution test, growth inhibition; conditions: compared with Lactobacillus sanfranciscensis
Excerpt: as §1

[4] = test system: Enterococcus Faecalis (DSM20409); assay: microtitre plate dilution test, growth inhibition; conditions: natural product, read-out: Konzentration, die eine Hemmung des Wachstums der Bakterien bewirkte
Excerpt: as §1, §2

[5] = test system: Lactobacillus sanfranciscensis (ATCC27651); assay: microtitre plate dilution test, minimal inhibitory concentration; conditions: natural product isolated from Lactobacillus reuteri LTH 2584; growth inhibition versus controls; read-out: minimale inhibitorische Konzentration
Excerpt: as §1
(§3) Diese sogenannte minimale inhibitorische Konzentration wurde für das Bakterium Lactobacillus sanfranciscensis (ATCC27651) mit 0,1 +/-0,05 mg/l bestimmt.

Hefen = assay: microtitre plate dilution test, growth inhibition; conditions: yeasts; at the tested concentrations
L. sakei (LTH673) = assay: microtitre plate dilution test, growth inhibition; conditions: compared with L. sanfranciscensis (MIC 0,1 +/-0,05 mg/l)
Excerpt: as §1, §3

L. curvatus (LTH1174) = assay: microtitre plate dilution test, growth inhibition; conditions: compared with L. sanfranciscensis (MIC 0,1 +/-0,05 mg/l)
Excerpt: as §1, §3

Structure (SMILES) | Menge für gleiche Ergebnisse wie eine Menge des natürlichen Reutericyclins (Bakterien; as a rule) | antibakterielle Wirkung (Bakterien) | Empfindlichkeit gegenüber Reutericyclin [1] | Empfindlichkeit gegenüber Reutericyclin [2] | Empfindlichkeit gegenüber Reutericyclin (Escherichia coli) | Empfindlichkeit gegenüber Reutericyclin [3] | MIC [4] | MIC [5] | Empfindlichkeit gegenüber Reutericyclin (Hefen) | Empfindlichkeit gegenüber Reutericyclin (L. sakei (LTH673)) | Empfindlichkeit gegenüber Reutericyclin (L. curvatus (LTH1174))
CCCCCCC/C=C/C(=O)N1C(O)=C(C(C)=O)C(=O)C1CC(C)C (racemic) [compound 6, N-trans-2-Decenoyl-3-acetyl-5-iso-butylpyrrolidin-2,4-dion] | doppelte Mengen | etwas schwächer | – | – | – | – | – | – | – | – | –
CCCCCCC/C=C/C(=O)N1C(O)=C(C(C)=O)C(=O)[C@H]1CC(C)C [Reutericyclin, 5R-1-(2-trans-Decenoyl)-3-acetyl-5-isobutyl-delta2-pyrrolin4-on] | – | – | ebenfalls eine Empfindlichkeit | in einer entsprechenden Größenordnung wie Lactobacillus sanfranciscensis | nicht empfindlich | in einer entsprechenden Größenordnung wie Lactobacillus sanfranciscensis | ~0.05 µg/mL (≈ 0.143 µM) | 0.1 µg/mL (≈ 0.286 µM) | nicht empfindlich | sehr ähnliche Empfindlichkeiten | sehr ähnliche Empfindlichkeiten
